Results published in paper PMC8081377 (Mutagenesis, 2021).
Structures can show the parent of a compound that is named as a salt. Where two headings read alike, the source gives them in different places.

Legend:
[1] = tested on: EpiDerm™ EPI-200-MNA skin tissues
[2] = tested on: EpiDerm™ EPI-200-MNA skin tissues; remark: listed apart in the source
[3] = % VCC or % BN, lab(s) as stated in the text
[4] = three treatments, vs solvent control
[5] = two treatments, vs solvent control
[6] = lack of excessive cytotoxicity, 48-h protocol

## O=[N+]([O-])c1cccc2ccccc12 [1-Nitronaphthalene]
[1]
  classification in the RSMN assay by Lab A: negative
[2]; [3]
  top/maximum dose tested, limited by excessive or strong cytotoxicity: 50–80 µg/cm^2

## OCC(Br)CBr (stereo not shown) [2,3-Dibromo-1-propanol]
[1]; overall call
  classification in the RSMN assay by Lab A: positive
[2]; [3]
  top/maximum dose tested, limited by excessive or strong cytotoxicity: 500–600 µg/cm^2

## Cc1ccc(N)cc1N [2,4-Diaminotoluene (2,4-DAT), 2,4-Diaminotoluene]
[1]; overall call
  classification in the RSMN assay by Lab A: positive
  classification in the RSMN assay by Lab B: negative
  classification in the RSMN assay by Lab D: negative
[1]; [4]
  % MN-BN response in individual experiment(s), Lab B, 72-h protocol: negative
[1]; [5]
  % MN-BN response in individual experiment(s), Lab B, 48-h protocol: none of which caused a significant increase
  % MN-BN response in individual experiment(s), Lab D, 48-h protocol: negative
[2]; [3]
  top/maximum dose tested, limited by excessive or strong cytotoxicity: 700 µg/cm^2

## Oc1ccc(Cl)cc1Cl [2,4-Dichlorophenol]
[1]; overall call
  classification in the RSMN assay by Lab A: negative
  classification in the RSMN assay by Lab D: negative
[1]; [5]
  % MN-BN response in individual experiment(s), Lab A, 48-h protocol: no statistically significant increases
  % MN-BN response in individual experiment(s), Lab D, 48-h protocol: negative
[2]; [3]
  top/maximum dose tested, limited by excessive or strong cytotoxicity: 50 µg/cm^2

## Cc1c(N)cccc1N [2,6-Diaminotoluene (2,6-DAT), 2,6-Diaminotoluene]
[1]
  classification in the RSMN assay by Lab D: negative
[2]; [3]
  top/maximum dose tested, limited by excessive or strong cytotoxicity: 350 µg/cm^2

## O=[N+]([O-])c1ccc(O)cc1 [4-Nitrophenol]
[1]; overall call
  classification in the RSMN assay by Lab A: negative
  classification in the RSMN assay by Lab B: negative
  classification in the RSMN assay by Lab C: negative
  classification in the RSMN assay by Lab D: negative
[1]; [4]
  % MN-BN response in individual experiment(s), Lab A, 72-h protocol: negative
  % MN-BN response in individual experiment(s), Lab C, 72-h protocol: negative
[1]; [5]
  % MN-BN response in individual experiment(s), Lab A, 48-h protocol: negative
  % MN-BN response in individual experiment(s), Lab B, 48-h protocol: did not find any evidence for an increase
  % MN-BN response in individual experiment(s), Lab C, 48-h protocol: negative
  % MN-BN response in individual experiment(s), Lab D, 48-h protocol: did not find any evidence for an increase
[2]; [3]
  top/maximum dose tested, limited by excessive or strong cytotoxicity: 20–48 µg/cm^2

## C1CC2OC2CC1C1CO1 (stereo not shown) [4-Vinyl-1-cyclohexene diepoxide]
[1]; overall call
  classification in the RSMN assay by Lab A: positive
  classification in the RSMN assay by Lab B: positive
  classification in the RSMN assay by Lab C: positive
[1]; [4]
  % MN-BN response in individual experiment(s), Lab C, 72-h protocol: equivocal response
[1]; [5]
  % MN-BN response in individual experiment(s), Lab B, 48-h protocol: significant increase
  % MN-BN response in individual experiment(s), Lab C, 48-h protocol: negative
  % MN-BN response in individual experiment(s), Lab D, 48-h protocol: negative
[2]; [3]
  top/maximum dose tested, limited by excessive or strong cytotoxicity: 64 µg/cm^2

## O=c1[nH]cc(F)c(=O)[nH]1 [5-Fluorouracil]
[1]
  % MN-BN response in individual experiment(s), Lab B, 48-h protocol: negative results
  % MN-BN response in individual experiment(s), Lab B, 72-h protocol: negative results
  classification in the RSMN assay by Lab A: positive
  classification in the RSMN assay by Lab B: negative

## Oc1cccc2cccnc12 [8-Hydroxyquinoline]
[1]
  classification in the RSMN assay by Lab D: negative
[2]; human
  top/maximum dose tested, limited by excessive or strong cytotoxicity: 48 µg/cm^2

## CC1(C)S[C@@H]2[C@H](NC(=O)[C@H](N)c3ccccc3)C(=O)N2[C@H]1C(=O)O [Ampicillin sodium salt]
[1]; overall call
  classification in the RSMN assay by Lab A: negative
[1]; [5]
  % MN-BN response in individual experiment(s), Lab A, 48-h protocol: no significant increases
[2]; [6]
  maximum dose tested without exceeding the cytotoxicity thresholds: 1600 µg/cm^2

## Cc1cn([C@H]2C[C@H](N=[N+]=[N-])[C@@H](CO)O2)c(=O)[nH]c1=O [Azidothymidine (AZT), Azidothymidine]
[1]; overall call
  classification in the RSMN assay by Lab A: positive
[1]; [4]
  % MN-BN response in individual experiment(s), Lab A, 72-h protocol: significant increases
[1]; [5]
  % MN-BN response in individual experiment(s), Lab A, 48-h protocol: significant increase
[2]; human
  top/maximum dose tested, limited by excessive or strong cytotoxicity: 700 µg/cm^2

## CCC(=O)OCC(=O)[C@@]1(OC(=O)CC)[C@@H](C)C[C@H]2[C@@H]3CCC4=CC(=O)C=C[C@]4(C)[C@@]3(Cl)[C@@H](O)C[C@@]21C [Beclomethasone dipropionate]
[1]; overall call
  classification in the RSMN assay by Lab B: negative
[1]; [5]
  % MN-BN response in individual experiment(s), Lab B, 48-h protocol: no significant increases
[2]; [6]
  maximum dose tested without exceeding the cytotoxicity thresholds: 1600 µg/cm^2

## COc1cc2c(c(OC)c1OC)-c1ccc(OC)c(=O)cc1[C@@H](NC(C)=O)CC2 [Colchicine]
[1]; overall call
  classification in the RSMN assay by Lab A: positive
  classification in the RSMN assay by Lab C: positive
[1]; [5]
  % MN-BN response in individual experiment(s), Lab A, 48-h protocol: highly significant increases
  % MN-BN response in individual experiment(s), Lab C, 48-h protocol: highly significant increases
[2]; [3]
  top/maximum dose tested, limited by excessive or strong cytotoxicity: 0.03 µg/cm^2

## COc1cc(/C=C/C(=O)CC(=O)/C=C/c2ccc(O)c(OC)c2)ccc1O [Curcumin]
[1]; overall call
  classification in the RSMN assay by Lab B: positive
[2]; [3]
  top/maximum dose tested, limited by excessive or strong cytotoxicity: 160 µg/cm^2

## OC[C@@H](O)[C@@H](O)[C@H](O)[C@H](O)CO [D-Mannitol]
[1]; overall call
  classification in the RSMN assay by Lab B: negative
  classification in the RSMN assay by Lab D: negative
[1]; [5]
  % MN-BN response in individual experiment(s), Lab B, 48-h protocol: no significant increase
  % MN-BN response in individual experiment(s), Lab D, 48-h protocol: no significant increase
[2]; [6]
  maximum dose tested without exceeding the cytotoxicity thresholds: 1600 µg/cm^2

## O=C(O)Cc1ccccc1Nc1c(Cl)cccc1Cl [Diclofenac]
[1]; overall call
  classification in the RSMN assay by Lab A: positive
  classification in the RSMN assay by Lab B: positive
  classification in the RSMN assay by Lab D: positive
[1]; reported by Lab A
  apoptotic cells alongside the increase of micronuclei: strong increase of apoptotic cells
[1]; [5]
  % MN-BN response in individual experiment(s), Lab A, 48-h protocol: significant increases
[2]; [3]
  top/maximum dose tested, limited by excessive or strong cytotoxicity: 50–80 µg/cm^2

## CCc1cc(C(N)=S)ccn1 [Ethionamide]
[1]
  % MN-BN response in individual experiment(s), Lab A, 48-h protocol: negative
  % MN-BN response in individual experiment(s), Lab B, 48-h protocol: negative
  % MN-BN response in individual experiment(s), Lab B, 72-h protocol: negative
  % MN-BN response in individual experiment(s), Lab C, 48-h protocol: negative
  classification in the RSMN assay by Lab A: negative
  classification in the RSMN assay by Lab B: negative
  classification in the RSMN assay by Lab C: negative
[2]; human
  % VCC or BN (cytotoxicity thresholds exceeded): < 40 % VCC or BN
  top/maximum dose tested, limited by excessive or strong cytotoxicity: 30–160 µg/cm^2

## CCOS(C)(=O)=O [Ethyl methanesulfonate (EMS), Ethyl methanesulfonate]
[1]; overall call
  classification in the RSMN assay by Lab A: positive
  classification in the RSMN assay by Lab C: positive
[1]; [4]
  % MN-BN response in individual experiment(s), Lab A, 72-h protocol: significant increase in the % MN-BN at multiple doses
[1]; [5]
  % MN-BN response in individual experiment(s), Lab C, 48-h protocol: clear and dose-dependent increase
[2]; [3]
  top/maximum dose tested, limited by excessive or strong cytotoxicity: 360 µg/cm^2

## COc1cc([C@@H]2c3cc4c(cc3[C@@H](O[C@@H]3O[C@@H]5CO[C@@H](C)O[C@H]5[C@H](O)[C@H]3O)[C@H]3COC(=O)[C@H]23)OCO4)cc(OC)c1O [Etoposide]
[2]; [3]
  top/maximum dose tested, limited by excessive or strong cytotoxicity: 1.6 µg/cm^2

## COS(C)(=O)=O [Methyl methanesulfonate (MMS), Methyl methanesulfonate]
[1]; overall call
  classification in the RSMN assay by Lab B: positive
[2]; [3]
  top/maximum dose tested, limited by excessive or strong cytotoxicity: 16 µg/cm^2

## CCCCCl [N-Butyl chloride]
[1]
  % MN-BN response in individual experiment(s), Lab A, 72-h protocol: negative results
  % MN-BN response in individual experiment(s), Lab B, 48-h protocol: no significant increases
  % MN-BN response in individual experiment(s), Lab C, 48-h protocol: no significant increase
  % MN-BN response in individual experiment(s), Lab C, 72-h protocol: no significant increase
  % MN-BN response in individual experiment(s), Lab D, 48-h protocol: no significant increases
  classification in the RSMN assay by Lab A: negative
  classification in the RSMN assay by Lab B: negative
  classification in the RSMN assay by Lab C: negative
  classification in the RSMN assay by Lab D: negative

## COC(=O)C1=C(C)NC(C)=C(C(=O)OC)C1c1ccccc1[N+](=O)[O-] [Nifedipine]
[1]; overall call
  classification in the RSMN assay by Lab A: negative

## O=C1CN(/N=C/c2ccc([N+](=O)[O-])o2)C(=O)N1 [Nitrofurantoin]
[1]
  classification in the RSMN assay by Lab B: negative
[2]; human
  maximum dose tested without exceeding the cytotoxicity thresholds: 1600 µg/cm^2
  top/maximum dose tested, limited by excessive or strong cytotoxicity: 48 µg/cm^2

## c1ccc2c(c1)ccc1ccccc12 [Phenanthrene]
[1]
  % MN-BN response in individual experiment(s), Lab B, 48-h protocol: negative
  % MN-BN response in individual experiment(s), Lab B, 72-h protocol: no evidence for an increase
  % MN-BN response in individual experiment(s), Lab C, 48-h protocol: negative
  % MN-BN response in individual experiment(s), Lab D, 48-h protocol: negative
  classification in the RSMN assay by Lab A: positive
  classification in the RSMN assay by Lab B: negative
  classification in the RSMN assay by Lab C: negative
  classification in the RSMN assay by Lab D: negative
[2]; lab(s) as stated in the text
  top dose, limited by precipitation on the surface of the skin tissues: 200–400 µg/cm^2
[2]; second 48-h experiment, Lab A
  doses at which precipitation was seen: ≥ 400 µg/cm^2

## Oc1ccccc1 [Phenol]
[1]
  % MN-BN response in individual experiment(s), Lab D, 48-h protocol: significant increase in the % MN-BN was observed only at the highest dose tested
  classification in the RSMN assay by Lab D: negative

## CCCOC(=O)c1cc(O)c(O)c(O)c1 [Propyl gallate]
[1]
  % MN-BN response in individual experiment(s), Lab B, 48-h protocol: did not significantly increase
  classification in the RSMN assay by Lab B: negative
[2]; [3]
  top/maximum dose tested, limited by excessive or strong cytotoxicity: 48 µg/cm^2

## Oc1cccc(O)c1 [Resorcinol]
[1]
  % MN-BN response in individual experiment(s), Lab B, 48-h protocol: significant increase in % MN-BN at the highest dose tested
  % MN-BN response in individual experiment(s), Lab B, 72-h protocol: did not induce any statistically significant increase
  classification in the RSMN assay by Lab B: negative

## CC(=O)O[C@H]1C(=O)[C@@]2(C)[C@H]([C@H](OC(=O)c3ccccc3)[C@]3(O)C[C@H](OC(=O)[C@H](O)[C@@H](NC(=O)c4ccccc4)c4ccccc4)C(C)=C1C3(C)C)[C@]1(OC(C)=O)CO[C@@H]1C[C@@H]2O [Taxol]
[1]; overall call
  classification in the RSMN assay by Lab C: positive
[1]; [5]
  % MN-BN response in individual experiment(s), Lab C, 48-h protocol: clear and dose-dependent increase
[2]; [3]
  top/maximum dose tested, limited by excessive or strong cytotoxicity: 1.6 µg/cm^2

## CCCCNC(=O)NS(=O)(=O)c1ccc(C)cc1 [Tolbutamide]
[1]; early Phase 2a only
  classification in the RSMN assay by Lab A: positive
[1]; later Phase 2a testing only, expected outcome negative
  classification in the RSMN assay by Lab A: correctly classified
[1]; overall call
  classification in the RSMN assay by Lab B: negative
  classification in the RSMN assay by Lab C: negative
[1]; [5]
  % MN-BN response in individual experiment(s), Lab C, 48-h protocol: negative results
